Source: ChEMBL document CHEMBL1157898 (Bioorg Med Chem Lett, 2010)
The source made the active and inactive calls. No cut-off for these calls is given here.

What was measured:
[1] = Inhibition of CAMK2
[2] = target: Glycogen synthase kinase-3 beta (Homo sapiens) (UniProt P49841); assay: Inhibition of GSK3-beta
[3] = target: MAP/microtubule affinity-regulating kinase 3 (Homo sapiens) (UniProt P27448); assay: Inhibition of C-TAK1
[4] = target: Insulin-like growth factor 1 receptor (Homo sapiens) (UniProt P08069); assay: Inhibition of IGF1R
[5] = target: Fibroblast growth factor receptor 1 (Homo sapiens) (UniProt P11362); assay: Inhibition of FGFR1
[6] = target: RAC-alpha serine/threonine-protein kinase (Homo sapiens) (UniProt P31749); assay: Inhibition of AKT1
[7] = target: Mitogen-activated protein kinase kinase kinase kinase 4 (Homo sapiens) (UniProt O95819); assay: Inhibition of HGK
Sequence of Mitogen-activated protein kinase kinase kinase kinase 4 (Homo sapiens) (O95819 2-1239 limits assumed): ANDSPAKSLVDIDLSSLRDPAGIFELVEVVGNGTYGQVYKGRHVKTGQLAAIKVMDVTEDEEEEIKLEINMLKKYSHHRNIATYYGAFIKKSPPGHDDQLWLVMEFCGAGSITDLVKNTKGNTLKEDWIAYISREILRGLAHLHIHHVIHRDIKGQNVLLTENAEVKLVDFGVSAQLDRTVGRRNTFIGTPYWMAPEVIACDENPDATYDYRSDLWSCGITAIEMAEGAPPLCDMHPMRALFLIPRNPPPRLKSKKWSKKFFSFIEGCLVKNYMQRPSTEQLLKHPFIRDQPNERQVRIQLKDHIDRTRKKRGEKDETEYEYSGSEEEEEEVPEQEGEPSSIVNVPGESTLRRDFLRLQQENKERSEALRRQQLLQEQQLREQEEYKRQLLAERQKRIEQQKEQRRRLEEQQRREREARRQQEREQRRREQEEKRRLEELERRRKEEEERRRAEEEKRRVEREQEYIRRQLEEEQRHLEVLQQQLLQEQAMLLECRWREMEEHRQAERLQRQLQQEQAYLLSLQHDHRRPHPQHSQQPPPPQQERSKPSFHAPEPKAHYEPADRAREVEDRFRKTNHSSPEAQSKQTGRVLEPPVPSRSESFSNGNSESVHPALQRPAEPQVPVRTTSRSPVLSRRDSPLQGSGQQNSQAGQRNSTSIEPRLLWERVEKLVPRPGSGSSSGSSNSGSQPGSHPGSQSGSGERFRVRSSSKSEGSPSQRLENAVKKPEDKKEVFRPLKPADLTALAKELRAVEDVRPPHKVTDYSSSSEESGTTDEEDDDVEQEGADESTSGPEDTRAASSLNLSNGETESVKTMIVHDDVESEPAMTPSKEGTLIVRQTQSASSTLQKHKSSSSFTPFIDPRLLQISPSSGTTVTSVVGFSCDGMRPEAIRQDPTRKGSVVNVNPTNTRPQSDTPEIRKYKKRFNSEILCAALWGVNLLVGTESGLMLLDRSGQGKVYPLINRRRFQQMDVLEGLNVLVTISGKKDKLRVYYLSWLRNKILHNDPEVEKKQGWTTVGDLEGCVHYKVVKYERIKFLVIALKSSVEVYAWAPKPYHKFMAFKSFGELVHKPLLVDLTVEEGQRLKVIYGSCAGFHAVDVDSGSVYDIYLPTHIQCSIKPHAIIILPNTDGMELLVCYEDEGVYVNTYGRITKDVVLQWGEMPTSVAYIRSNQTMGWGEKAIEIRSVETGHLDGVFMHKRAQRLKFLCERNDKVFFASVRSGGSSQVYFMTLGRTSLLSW

[8] = target: T1, Protein kinase C zeta type (Homo sapiens) (UniProt Q05513); assay: Inhibition of PKCzeta
T1 sequence (whole entry): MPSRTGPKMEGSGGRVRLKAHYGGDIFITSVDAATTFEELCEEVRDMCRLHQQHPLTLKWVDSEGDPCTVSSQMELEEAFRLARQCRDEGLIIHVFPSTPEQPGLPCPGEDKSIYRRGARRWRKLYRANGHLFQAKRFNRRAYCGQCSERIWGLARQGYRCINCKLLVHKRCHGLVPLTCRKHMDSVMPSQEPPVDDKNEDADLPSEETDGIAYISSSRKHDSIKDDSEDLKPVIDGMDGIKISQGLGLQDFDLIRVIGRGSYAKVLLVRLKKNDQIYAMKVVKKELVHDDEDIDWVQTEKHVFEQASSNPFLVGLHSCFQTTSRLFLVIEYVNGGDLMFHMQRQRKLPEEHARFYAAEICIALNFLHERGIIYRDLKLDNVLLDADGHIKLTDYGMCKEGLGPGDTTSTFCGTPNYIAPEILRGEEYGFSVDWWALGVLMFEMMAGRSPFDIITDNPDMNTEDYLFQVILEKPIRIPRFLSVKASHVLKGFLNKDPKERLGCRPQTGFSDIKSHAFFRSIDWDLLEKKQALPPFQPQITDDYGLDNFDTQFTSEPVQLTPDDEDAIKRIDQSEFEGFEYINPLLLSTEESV

[9] = target: Hepatocyte growth factor receptor (Homo sapiens) (UniProt P08581); assay: Inhibition of MET
[10] = target: Serine/threonine-protein kinase PAK 2 (Homo sapiens) (UniProt Q13177); assay: Inhibition of PAK2
[11] = target: Receptor-type tyrosine-protein kinase FLT3 (Homo sapiens) (UniProt P36888); assay: Inhibition of FLT3; conditions: concentration not given here
Sequence of Receptor-type tyrosine-protein kinase FLT3 (Homo sapiens) (P36888 whole entry): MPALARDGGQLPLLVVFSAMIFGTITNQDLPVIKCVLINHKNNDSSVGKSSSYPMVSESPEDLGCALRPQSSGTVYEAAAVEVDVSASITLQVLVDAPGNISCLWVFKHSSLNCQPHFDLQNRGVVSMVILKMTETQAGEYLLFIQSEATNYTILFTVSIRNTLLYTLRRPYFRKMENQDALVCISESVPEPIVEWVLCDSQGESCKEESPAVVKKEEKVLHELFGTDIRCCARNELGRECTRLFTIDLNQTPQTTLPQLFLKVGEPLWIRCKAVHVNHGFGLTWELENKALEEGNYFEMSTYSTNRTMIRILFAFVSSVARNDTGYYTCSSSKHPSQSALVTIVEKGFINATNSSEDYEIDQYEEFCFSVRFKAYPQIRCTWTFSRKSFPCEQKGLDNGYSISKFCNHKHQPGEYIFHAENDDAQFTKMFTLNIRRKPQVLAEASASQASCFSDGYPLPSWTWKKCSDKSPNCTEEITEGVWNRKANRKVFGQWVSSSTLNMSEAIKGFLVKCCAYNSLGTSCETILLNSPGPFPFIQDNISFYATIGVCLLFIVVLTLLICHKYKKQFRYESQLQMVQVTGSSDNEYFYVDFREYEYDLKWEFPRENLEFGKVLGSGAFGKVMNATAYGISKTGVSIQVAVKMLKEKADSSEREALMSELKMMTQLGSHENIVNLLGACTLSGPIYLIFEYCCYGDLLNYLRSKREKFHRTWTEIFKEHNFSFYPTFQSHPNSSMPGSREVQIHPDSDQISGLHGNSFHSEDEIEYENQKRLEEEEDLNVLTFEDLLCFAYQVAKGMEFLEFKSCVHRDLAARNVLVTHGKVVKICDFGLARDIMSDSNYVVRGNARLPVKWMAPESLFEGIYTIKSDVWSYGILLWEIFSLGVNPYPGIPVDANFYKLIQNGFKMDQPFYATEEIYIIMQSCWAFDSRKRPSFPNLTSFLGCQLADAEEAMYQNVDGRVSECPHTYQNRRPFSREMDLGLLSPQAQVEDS

[12] = target: Tyrosine-protein kinase Lyn (Homo sapiens) (UniProt P07948); assay: Inhibition of LYN
[13] = target: MAP kinase-activated protein kinase 2 (Homo sapiens) (UniProt P49137); assay: Inhibition of MAPKAPK2
[14] = Inhibition of AMPK
[15] = target: Mitogen-activated protein kinase 3 (Homo sapiens) (UniProt P27361); assay: Inhibition of ERK1
Sequence of Mitogen-activated protein kinase 3 (Homo sapiens) (P27361 whole entry): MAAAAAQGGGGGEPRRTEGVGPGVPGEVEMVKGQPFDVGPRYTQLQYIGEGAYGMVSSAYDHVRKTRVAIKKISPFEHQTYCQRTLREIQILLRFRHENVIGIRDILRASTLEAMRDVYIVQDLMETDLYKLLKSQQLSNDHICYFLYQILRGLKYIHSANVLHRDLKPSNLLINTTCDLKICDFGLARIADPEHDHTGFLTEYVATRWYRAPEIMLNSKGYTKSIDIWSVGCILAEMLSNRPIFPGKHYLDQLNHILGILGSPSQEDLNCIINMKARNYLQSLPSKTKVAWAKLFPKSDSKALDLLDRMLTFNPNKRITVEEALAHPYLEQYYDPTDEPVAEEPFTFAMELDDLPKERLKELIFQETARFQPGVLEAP

[16] = target: Gamma-secretase (Homo sapiens) (UniProt Q96BI3+Q9NZ42+Q8WW43+P49768+Q92542+P49810); assay: Inhibition of gamma secretase mediated amyloid beta 40 generation in human H4 cells at 10 uM by LPECL assay; values are per cent of control
[17] = target: T2, Serine/threonine-protein kinase 3 (Homo sapiens) (UniProt Q13188); assay: Inhibition of MST2
T2 sequence (whole entry): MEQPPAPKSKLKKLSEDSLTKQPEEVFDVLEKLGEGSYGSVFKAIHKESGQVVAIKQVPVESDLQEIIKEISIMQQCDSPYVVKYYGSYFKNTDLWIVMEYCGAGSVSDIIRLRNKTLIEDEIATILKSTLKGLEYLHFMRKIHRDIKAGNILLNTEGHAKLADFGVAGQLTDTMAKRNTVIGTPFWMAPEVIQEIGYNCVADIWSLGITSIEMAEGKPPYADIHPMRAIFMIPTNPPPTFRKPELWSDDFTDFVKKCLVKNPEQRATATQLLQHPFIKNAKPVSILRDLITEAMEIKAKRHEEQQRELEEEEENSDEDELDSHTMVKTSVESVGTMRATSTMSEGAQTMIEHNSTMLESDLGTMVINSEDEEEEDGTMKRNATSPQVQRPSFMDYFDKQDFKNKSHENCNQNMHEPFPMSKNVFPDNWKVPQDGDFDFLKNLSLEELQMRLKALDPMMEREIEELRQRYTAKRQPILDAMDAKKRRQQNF

[18] = target: Serine/threonine-protein kinase pim-2 (Homo sapiens) (UniProt Q9P1W9); assay: Inhibition of PIM2
[19] = target: T3, Serine/threonine-protein kinase Chk1 (Homo sapiens) (UniProt O14757); assay: Inhibition of CHK1
T3 sequence (whole entry): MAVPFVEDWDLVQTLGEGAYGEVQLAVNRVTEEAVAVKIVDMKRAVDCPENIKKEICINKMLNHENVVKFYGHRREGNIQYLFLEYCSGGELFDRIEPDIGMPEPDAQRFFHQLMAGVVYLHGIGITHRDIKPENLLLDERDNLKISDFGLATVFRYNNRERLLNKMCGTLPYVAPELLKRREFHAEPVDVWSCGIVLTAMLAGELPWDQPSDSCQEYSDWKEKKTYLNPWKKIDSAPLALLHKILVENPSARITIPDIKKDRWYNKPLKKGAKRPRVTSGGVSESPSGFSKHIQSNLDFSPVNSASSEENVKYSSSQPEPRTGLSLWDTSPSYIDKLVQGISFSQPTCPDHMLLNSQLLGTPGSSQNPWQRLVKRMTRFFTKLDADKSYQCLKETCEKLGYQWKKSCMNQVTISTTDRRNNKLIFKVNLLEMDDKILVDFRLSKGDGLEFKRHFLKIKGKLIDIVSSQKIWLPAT

[20] = target: Tyrosine-protein kinase BTK (Homo sapiens) (UniProt Q06187); assay: Inhibition of BTK
Sequence of Tyrosine-protein kinase BTK (Homo sapiens) (Q06187 whole entry, canonical isoform): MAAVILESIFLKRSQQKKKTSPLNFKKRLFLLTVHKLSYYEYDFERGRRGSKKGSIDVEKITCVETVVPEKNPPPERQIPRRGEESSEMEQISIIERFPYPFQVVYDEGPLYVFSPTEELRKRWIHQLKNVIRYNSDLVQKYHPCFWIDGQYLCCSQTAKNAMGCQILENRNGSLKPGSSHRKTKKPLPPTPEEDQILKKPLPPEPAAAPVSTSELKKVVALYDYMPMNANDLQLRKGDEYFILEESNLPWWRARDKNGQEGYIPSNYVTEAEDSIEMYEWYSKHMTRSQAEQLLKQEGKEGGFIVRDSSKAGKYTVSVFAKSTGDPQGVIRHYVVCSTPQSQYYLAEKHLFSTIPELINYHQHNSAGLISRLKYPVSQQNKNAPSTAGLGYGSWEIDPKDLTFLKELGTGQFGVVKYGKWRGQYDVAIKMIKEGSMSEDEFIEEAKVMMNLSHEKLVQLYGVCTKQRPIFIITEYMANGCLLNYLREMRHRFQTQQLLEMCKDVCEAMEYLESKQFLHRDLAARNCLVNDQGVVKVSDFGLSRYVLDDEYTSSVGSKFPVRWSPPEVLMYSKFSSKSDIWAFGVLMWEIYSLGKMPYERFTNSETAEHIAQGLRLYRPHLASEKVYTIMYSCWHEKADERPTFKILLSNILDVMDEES

[21] = target: Casein kinase I isoform delta (Homo sapiens) (UniProt P48730); assay: Inhibition of casein kinase delta at 10 uM; values are per cent of control
Sequence of Casein kinase I isoform delta (Homo sapiens) (P48730 whole entry, looked up, canonical isoform): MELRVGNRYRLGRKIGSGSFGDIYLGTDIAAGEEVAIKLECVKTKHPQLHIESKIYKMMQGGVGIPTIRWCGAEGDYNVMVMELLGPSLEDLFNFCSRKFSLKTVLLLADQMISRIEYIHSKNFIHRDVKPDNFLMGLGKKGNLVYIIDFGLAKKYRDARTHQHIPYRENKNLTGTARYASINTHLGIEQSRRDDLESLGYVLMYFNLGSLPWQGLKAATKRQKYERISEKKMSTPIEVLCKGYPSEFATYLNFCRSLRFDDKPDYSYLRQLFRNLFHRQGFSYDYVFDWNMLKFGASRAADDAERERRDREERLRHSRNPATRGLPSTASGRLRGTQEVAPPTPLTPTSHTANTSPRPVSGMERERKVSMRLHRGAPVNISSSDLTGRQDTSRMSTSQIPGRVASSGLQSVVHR

[22] = target: T4, Aurora kinase A (Homo sapiens) (UniProt O14965); assay: Inhibition of Aurora A
T4 sequence (whole entry): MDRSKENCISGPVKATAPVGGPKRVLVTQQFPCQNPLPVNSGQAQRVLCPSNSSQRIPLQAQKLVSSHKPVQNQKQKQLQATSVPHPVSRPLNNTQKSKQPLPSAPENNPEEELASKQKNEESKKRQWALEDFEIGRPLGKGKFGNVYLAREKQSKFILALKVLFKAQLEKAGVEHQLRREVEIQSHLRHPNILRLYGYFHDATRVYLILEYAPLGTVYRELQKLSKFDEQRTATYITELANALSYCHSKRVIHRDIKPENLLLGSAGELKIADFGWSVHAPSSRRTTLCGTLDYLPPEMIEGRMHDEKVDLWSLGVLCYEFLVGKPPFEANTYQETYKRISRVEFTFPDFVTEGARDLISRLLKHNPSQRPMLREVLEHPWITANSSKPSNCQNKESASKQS

Sequence of Glycogen synthase kinase-3 beta (Homo sapiens) (P49841 whole entry, looked up): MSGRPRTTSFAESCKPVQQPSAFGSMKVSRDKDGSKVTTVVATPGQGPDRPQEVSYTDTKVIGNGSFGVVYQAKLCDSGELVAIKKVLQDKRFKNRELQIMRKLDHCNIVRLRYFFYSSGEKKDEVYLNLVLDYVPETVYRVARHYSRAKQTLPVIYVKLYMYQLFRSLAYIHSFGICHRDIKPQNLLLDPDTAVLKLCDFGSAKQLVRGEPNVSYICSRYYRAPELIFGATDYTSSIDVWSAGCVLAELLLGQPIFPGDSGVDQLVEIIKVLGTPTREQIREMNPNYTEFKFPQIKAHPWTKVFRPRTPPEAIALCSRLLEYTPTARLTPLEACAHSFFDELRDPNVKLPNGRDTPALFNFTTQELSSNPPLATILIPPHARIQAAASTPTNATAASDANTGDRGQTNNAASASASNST
Sequence of MAP/microtubule affinity-regulating kinase 3 (Homo sapiens) (P27448 whole entry, looked up): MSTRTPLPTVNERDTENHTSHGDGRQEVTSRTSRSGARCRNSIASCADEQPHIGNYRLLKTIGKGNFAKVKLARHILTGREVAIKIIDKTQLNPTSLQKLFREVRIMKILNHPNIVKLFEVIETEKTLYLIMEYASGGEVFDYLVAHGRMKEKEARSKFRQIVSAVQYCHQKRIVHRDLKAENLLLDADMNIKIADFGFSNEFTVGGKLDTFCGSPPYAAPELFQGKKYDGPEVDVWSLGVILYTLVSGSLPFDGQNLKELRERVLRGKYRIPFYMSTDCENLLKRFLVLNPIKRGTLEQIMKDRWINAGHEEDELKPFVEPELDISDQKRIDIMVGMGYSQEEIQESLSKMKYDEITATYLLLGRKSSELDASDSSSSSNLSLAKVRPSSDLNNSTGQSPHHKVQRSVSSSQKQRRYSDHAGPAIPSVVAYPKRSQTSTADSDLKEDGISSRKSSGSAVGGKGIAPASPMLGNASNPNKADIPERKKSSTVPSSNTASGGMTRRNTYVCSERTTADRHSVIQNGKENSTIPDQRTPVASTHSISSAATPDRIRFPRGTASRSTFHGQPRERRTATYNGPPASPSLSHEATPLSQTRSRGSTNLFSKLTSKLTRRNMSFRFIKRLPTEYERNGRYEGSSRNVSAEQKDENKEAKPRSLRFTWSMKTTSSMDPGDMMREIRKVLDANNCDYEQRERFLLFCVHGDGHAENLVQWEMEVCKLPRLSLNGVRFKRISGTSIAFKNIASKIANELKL

Q: With `COc1ccc(/C=C2/C(=O)Nc3ccc(Cl)cc32)c(OC)c1OC` as the molecule, how does the inhibition [1] read?
A: inactive

Q: What about the inhibition [2] of the same molecule?
A: inactive

Q: What about the inhibition [3] of the same molecule?
A: inactive

Q: And the inhibition [4]?
A: inactive

Q: And the inhibition [5]?
A: inactive

Q: And the inhibition [6]?
A: inactive

Q: And the inhibition [7]?
A: inactive

Q: What about the inhibition [8] of the same molecule?
A: inactive

Q: What about the inhibition [9] of the same molecule?
A: inactive

Q: What about the inhibition [10] of the same molecule?
A: inactive

Q: And the inhibition [11]?
A: 89%

Q: And the inhibition [12]?
A: inactive

Q: And the inhibition [13]?
A: inactive

Q: What about the inhibition [14] of the same molecule?
A: inactive

Q: And the inhibition [15]?
A: inactive

Q: What about the residual activity [16] of the same molecule?
A: 46%

Q: What about the inhibition [17] of the same molecule?
A: inactive

Q: And the inhibition [18]?
A: inactive

Q: What about the inhibition [19] of the same molecule?
A: inactive

Q: And the inhibition [20]?
A: inactive

Q: And the residual activity [21]?
A: 99%

Q: And the inhibition [22]?
A: inactive
